From US20160346255A1, “METHODS, AGENTS AND COMPOSITIONS FOR TREATMENT OF INFLAMMATORY CONDITIONS” (Betanien Hospital, priority 2014, published 2016)
Non-standard residues stand in square brackets, D forms with d. Residues, ends and D or L forms follow the SMILES beside them. *: point of attachment. dPhe(4-NHCONH2) = NC(=O)Nc1ccc(C[C@@H](N)C(=O)O)cc1; Dihydroorotyl(S) = O=C1C[C@@H](C(=O)*)NC(=O)N1; dPhe(4-Cl) = N[C@H](Cc1ccc(Cl)cc1)C(=O)O; Phe(4-NH2) = Nc1ccc(C[C@H](N)C(=O)O)cc1; d2Nal = N[C@H](Cc1ccc2ccccc2c1)C(=O)O; Lys(iPr) = CC(C)NCCCC[C@H](N)C(=O)O; d3Pal = N[C@H](Cc1cccnc1)C(=O)O

Tests used:
Format in all cases: in vivo, human
[1] = tested on: Patient with Multiple Sclerosis; experiment: Multiple sclerosis patient treated with degarelix (with concomitant fampridine)
Protocol: • person, diagnosed with multiple sclerosis (MS). Their MS was of the progressive type; characterized by a steady deterioration in function. • Fulfilled the 2010 McDonald Criteria for the diagnosis of MS (1).
• So far results of clinical trials for progressive MS have generally been disappointing. Currently, there is no FDA-approved treatment for progressive MS disease. • December 2014 received first dose of degarelix 240 mg s.c. • Received degarelix 80 mg s.c. every two weeks thereafter.
• This patient's EDSS has remained stable at 6.5, as expected over such a short time period of 6 weeks. A score of 6.5 is equivalent to only being able to walk with the aid of a walker, as in their case. This was evident at baseline and 6 weeks.
• Patient-reported outcomes are of increasing importance in trials of progressive multiple sclerosis (2). The most frequently used global patient-reported outcome in multiple sclerosis is the MSIS-29 (3). This has been correlated with clinical and imaging metrics specifically in progressive forms of the disease (4). According to a recent review (2), patient reported outcomes in trials of progressive multiple sclerosis can be used to validate MRI or clinical metrics, and increased use of patient-reported outcomes in trials of progressive multiple sclerosis will be expected to help satisfy regulators' requirements that treatments show relevant benefit for patients. • At baseline, they scored 121 on the MSIS-29. By 6 weeks, their score was reduced to 110. A clinically significant minimal difference is a score change of 8. Therefore this reduction of 11 in their score is considered clinically significant (5).
• The MSWS-12 (6) was designed as a disease-specific patient-based instrument for use in clinical trials and clinical practice, to capture the complex impact of MS on walking ability. […] One of the most important attributes of the MSWS-12 in comparison to other assessments of walking in MS patients is its responsiveness to change. […] By 6 weeks, their score was reduced to 53. This is a 12% improvement. A minimal clinically significant difference has not yet been established.
• The MFIS-5 is a modified form of the Fatigue Impact Scale (10) based on items derived from interviews with MS patients concerning how fatigue impacts their lives. This instrument provides an assessment of the effects of fatigue in terms of physical, cognitive, and psychosocial functioning. • At baseline, they scored 20 on the MFIS-5. By 6 weeks, their score was reduced to 12. This was a reduction of 40%, which is clinically significant.
• The T25FW is another common endpoint in trials. At baseline, they took 16.7 seconds to walk 25 feet, and by 6 weeks they took 15.2 seconds. This improvement in walking speed supports the patient's reported improved outcomes. […] This improvement in progressive MS is likely to also be observed in the relapsing-remitting type of MS. This is because the relapsing-remitting type gives similar signs and symptoms as the progressive type to patients over time.
• For the last 2.5 years, they had been taking stable concomitant fampridine, a potassium channel blocker, for symptomatic treatment for MS. Their MS disease activity had been increasing gradually over these 2.5 years, requiring them to use crutches, and eventually a walker. In December 2014, they started experimental treatment with degarelix. […] They describe in an interview that for the first time they could easily complete certain exercises with their under extremities that they had previously never been able to do during their physiotherapy visits. • Due to this effect, they decided to discontinue their long-term stable fampridine medication on 05.04.15. […] This improvement in progressive MS is likely to also be observed in the relapsing-remitting type of MS. This is because the relapsing-remitting type gives similar signs and symptoms as the progressive type to patients over time.

[2] = Peripheral GnRH levels by ELISA in patients on degarelix; conditions: 3 months
Protocol: (§1) We analysed peripheral GnRH levels in patients with various autoimmune diseases using ELISA. […] Due to the nature of ELISA assays, the concentration in pg/mL should not necessarily be regarded as absolute, and may be interpreted as relative. RA Patient A Baseline GnRH 394 pg/mL, after 3 months of degarelix with loading dose 240 mg, and maintenance doses 80 mg every 2 weeks, GnRH 359 pg/mL. […] During that month/6 weeks […] general function had improved, for example MSIS-29 had reduced from 121 to 110. […] During that period their PASI score reduced by more than 20%. Healthy control 1 baseline GnRH 162 pg/mL, healthy control 2 baseline GnRH 120 pg/mL, healthy control 3 baseline GnRH 153 pg/mL.

peripheral GnRH = experiment: as above
Protocol: as §1

[3] = tested on: Patient with Rheumatoid Arthritis; experiment: RA patient treated with degarelix and methotrexate
Protocol: • person with seropositive rheumatoid arthritis with disease duration of 16 years • Fulfilled ACR 2010 classification criteria for rheumatoid arthritis
• Previously failed 3 biologics (etanercept, Actemra, and rituximab). Last tried rituximab November 2013, but increasing disease activity and blood tests (CRP and ESR) during the months thereafter until start of degarelix 16.06.14. Concomitantly used stable methotrexate 10 mg weekly since 1999. • Started degarelix 240 mg induction dose 16.06.14, with 80 mg every 2 weeks thereafter. • Disease activity reduced and they achieved an ACR60 response by 29.09.14 under the introduction of degarelix and stable concomitant methotrexate and prednisolone. • 03.10.14 the patient's pulmonary physician stopped methotrexate treatment due to pleural thickening, and CT imaging supporting lung fibrosis which was suspected to be due to methotrexate. The patient had dyspnea which resolved once methotrexate was stopped. • By 21.11.14, the patients disease activity score had increased from 5.1 (29.9.14) to 5.7 (21.11.14), due to the discontinuation of methotrexate.

[4] = progressive MS patient, by 6 weeks

SMILES: CC(=O)N[C@H](Cc1ccc2ccccc2c1)C(=O)N[C@H](Cc1ccc(Cl)cc1)C(=O)N[C@H](Cc1cccnc1)C(=O)N[C@@H](CO)C(=O)N[C@@H](Cc1ccc(NC(=O)[C@@H]2CC(=O)NC(=O)N2)cc1)C(=O)N[C@H](Cc1ccc(NC(N)=O)cc1)C(=O)N[C@@H](CC(C)C)C(=O)N[C@@H](CCCCNC(C)C)C(=O)N1CCC[C@H]1C(=O)N[C@H](C)C(N)=O [degarelix] (Ac-[d2Nal][dPhe(4-Cl)][d3Pal]S[Phe(4-NH2)](Dihydroorotyl(S))[dPhe(4-NHCONH2)]L[Lys(iPr)]P[dA]-NH2)
- Timed walk test ([1]; MS patient, 29.4.15, after fampridine discontinued 05.04.15, from 11.9): 14.0 s
- Expanded Disability Status Scale (EDSS) ([1]; progressive MS patient, 6 weeks, stable vs baseline): 6.5
- MFIS-5 reduction [1, 4]: 40%
- MSIS-29 score reduction [1, 4]: 11
- MSWS-12 improvement [1, 4]: 12%
- MFIS-5 score ([1]; progressive MS patient, by 6 weeks, baseline 20): 12
- MSWS-12 score ([1]; progressive MS patient, by 6 weeks, baseline 60): 53
- MSIS-29 score ([1]; progressive MS patient, by 6 weeks, baseline 121): 110
- Timed 25 Foot Walk (T25FW) ([1]; progressive MS patient, by 6 weeks, stable fampridine, baseline 16.7): 15.2 s
- General function (patient reported) ([1]; progressive MS patient, from around 4 weeks, further by 6 weeks): general improvement
- PASI score reduction ([2]; Psoriasis Patient C): more than 20%
- CRP ([2]; RA Patient A, from 142 mg/L): 54 mg/L
- DAS score ([2]; RA Patient A, from 8.6): 4.2
- Peripheral GnRH (ELISA) (peripheral GnRH; Multiple Sclerosis Patient B, after 1 month, baseline 318): 210 pg/mL
- Peripheral GnRH (ELISA) (peripheral GnRH; Psoriasis Patient C, after 3 months, baseline 300): 274 pg/mL
- Peripheral GnRH (ELISA) (peripheral GnRH; RA Patient A, after 3 months, baseline 394): 359 pg/mL
- Disease activity score ([3]; 21.11.14, degarelix after methotrexate stopped 03.10.14): 5.7
- Disease activity score ([3]; 29.9.14, degarelix with methotrexate 10 mg weekly): 5.1
- ACR response achieved ([3]; by 29.09.14 (start 16.06.14), with stable concomitant methotrexate and prednisolone): ACR60
